This note sets out measurements from patent EP0741188A2, “Single chain insulin with high bioactivity” (ELI LILLY AND COMPANY, priority 1995, dated 1996).

The test system of one assay is IGF-1 receptor. As to the kind of experiment: IGF-1 assay: displacement of [125I] ligand from human placental membranes. The format is binding. The following applies: relative to IGF-1 = 100, human placental membrane protein, 24 hours at 4°C, from EC50 values of displacement curves. The protocol:
(§1) Measurements of insulin and IGF-1 activities were accomplished in substantial accordance with the teaching of Gruppuso, et al. (1988) J. of Clin. Endocrin. and Metab. 67:194-197. Briefly, 30-50 µg of human placental membrane protein was incubated with approximately 10 femtomoles of [^125I] ligand in a final volume of 500 µl of 100 mM HEPES, pH 7.8, 120mM NaCl, 5mM KCl, 1.2mM MgSO4, 8mM glucose and 0.25% BSA for 24 hours at 4°C. Membranes were collected on glass fiber filters pre-treated with 0.1% polyethyleneimine by using a cell harvester (Skatron, Lier, Norway). Binding data were analyzed by fitting displacement curves to a four parameter model employing Prefit/Allfit® software for the determination of EC50 values.
For orientation: Loss of bound radioactivity is the signal in a displacement assay; it reports binding, not function.

The test system of another assay is insulin receptor. Briefly: Insulin assay: displacement of [125I] ligand from human placental membranes. Format: binding. To be noted: relative to human insulin = 100, human placental membrane protein, 24 hours at 4°C, from EC50 values of displacement curves. How it is done: as §1

As for “bCa: single-chain human insulin B-chain and A-chain joined by Bridging Peptide GLY-TYR-GLY-SER-SER-SER-ARG-ARG-ALA-PRO-GLN-THR; made by solid-phase synthesis”, in the assay on IGF-1 receptor, the “%IGF-1 Activity” value is recorded as 23%. The “%Insulin Activity” value with insulin receptor is listed as 34%.
